This note sets out measurements from US11179389B2, “Purine inhibitors of human phosphatidylinositol 3-kinase delta” (Merck Sharp & Dohme Corp., priority 2017, dated 2021).

In assay [1] the target is PI3Kdelta (Homo sapiens (Human), UniProt O00329). Kind of assay: HTRF PI3K biochemical assay, delta isoform. As to conditions: 0.3 nM enzyme, 100 uM ATP, 5 uM PIP2, form screened per table (Neutral or TFA salt). The source says: (§1) HTRF PI3K Biochemical Assay to Measure Intrinsic Potency of Compound Inhibitors
Chain of PI3Kdelta (O00329 whole entry, canonical isoform): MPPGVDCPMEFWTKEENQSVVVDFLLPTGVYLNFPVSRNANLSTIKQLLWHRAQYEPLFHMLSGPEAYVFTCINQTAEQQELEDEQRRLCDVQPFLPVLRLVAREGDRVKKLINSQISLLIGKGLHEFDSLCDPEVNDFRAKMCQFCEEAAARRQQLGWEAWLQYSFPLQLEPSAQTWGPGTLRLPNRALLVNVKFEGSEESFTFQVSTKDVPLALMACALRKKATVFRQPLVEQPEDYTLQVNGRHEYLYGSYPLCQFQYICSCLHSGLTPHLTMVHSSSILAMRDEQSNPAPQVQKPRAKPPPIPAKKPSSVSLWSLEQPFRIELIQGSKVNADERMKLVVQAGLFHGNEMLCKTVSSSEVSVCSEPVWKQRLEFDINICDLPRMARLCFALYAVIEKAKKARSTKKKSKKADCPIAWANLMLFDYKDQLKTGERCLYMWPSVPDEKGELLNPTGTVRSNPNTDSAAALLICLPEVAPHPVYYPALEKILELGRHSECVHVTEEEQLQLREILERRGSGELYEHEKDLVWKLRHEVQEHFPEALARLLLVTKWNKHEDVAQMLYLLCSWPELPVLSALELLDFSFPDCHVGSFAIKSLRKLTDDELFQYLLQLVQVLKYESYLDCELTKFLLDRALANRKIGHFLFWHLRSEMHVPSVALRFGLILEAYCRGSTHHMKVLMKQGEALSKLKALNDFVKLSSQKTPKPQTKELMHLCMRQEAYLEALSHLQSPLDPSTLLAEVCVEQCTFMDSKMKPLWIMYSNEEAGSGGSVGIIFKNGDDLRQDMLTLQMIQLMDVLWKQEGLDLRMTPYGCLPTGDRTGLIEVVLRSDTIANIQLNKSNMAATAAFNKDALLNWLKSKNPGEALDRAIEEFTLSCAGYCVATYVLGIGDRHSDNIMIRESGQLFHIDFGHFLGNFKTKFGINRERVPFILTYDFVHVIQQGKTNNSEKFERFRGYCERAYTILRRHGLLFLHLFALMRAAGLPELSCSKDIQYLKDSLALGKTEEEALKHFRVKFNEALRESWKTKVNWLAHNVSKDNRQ
Chain of PI3Kdelta (P27986 whole entry partner, canonical isoform): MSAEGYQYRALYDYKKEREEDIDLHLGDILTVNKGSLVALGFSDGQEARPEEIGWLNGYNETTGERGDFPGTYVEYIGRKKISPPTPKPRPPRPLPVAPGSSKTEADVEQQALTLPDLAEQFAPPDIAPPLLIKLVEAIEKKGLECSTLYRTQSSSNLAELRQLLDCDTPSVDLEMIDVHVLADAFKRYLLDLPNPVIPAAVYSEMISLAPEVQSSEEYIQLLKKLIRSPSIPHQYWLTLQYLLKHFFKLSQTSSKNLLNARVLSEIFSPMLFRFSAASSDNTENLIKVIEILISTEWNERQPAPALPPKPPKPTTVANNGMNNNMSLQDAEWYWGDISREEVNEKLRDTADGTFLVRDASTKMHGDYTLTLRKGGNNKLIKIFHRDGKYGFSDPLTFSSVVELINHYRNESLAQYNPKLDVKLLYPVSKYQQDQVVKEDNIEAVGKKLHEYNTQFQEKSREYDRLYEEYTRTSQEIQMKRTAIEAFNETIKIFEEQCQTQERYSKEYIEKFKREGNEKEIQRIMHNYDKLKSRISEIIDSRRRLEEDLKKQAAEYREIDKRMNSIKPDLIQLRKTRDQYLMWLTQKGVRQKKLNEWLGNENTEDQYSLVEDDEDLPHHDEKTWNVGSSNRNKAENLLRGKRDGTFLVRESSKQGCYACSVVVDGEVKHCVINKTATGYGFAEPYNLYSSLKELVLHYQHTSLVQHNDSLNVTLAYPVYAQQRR
(§2) The PI3-Kinase biochemical assays were developed to measure the intrinsic potency and compound dependent inhibition of the alpha, beta, delta, and gamma PI3K isoform enzymes. This assay was developed and further optimized from a kit produced by Upstate (Millipore catalog #33-047) (Millipore Sigma. Billerica Mass., USA) and has been configured for high throughput screening (HTS) and structure-activity relationship (SAR) screening. Briefly, this procedure exploits the exquisite specificity and high affinity binding of enzyme reaction […] phosphatidyl(3,4,5)triphosphate (PIP3) to the GRP1 pleckstrin homology (PH) domain to generate the signal. In the absence of PIP3, an HTRF (Homogeneous Time-Resolved Fluorescence energy transfer) complex is formed consisting of europium (Eu)-labeled anti-GST, GSTtagged GRP1-PH domain, biotin-PIP3 (biotinylated-PIP3) and streptavidin conjugated APC (Allophycocyanin). The native PIP3 produced by PI3-Kinase activity disrupts in a competitive manner the biotin-PIP3 from the pleckstrin homology (PH) domain, resulting in the loss of energy transfer (HTRF complex) and a decrease in the signal. The format of this assay is the same for all 4 isoforms of PI3K; the differences lie in the concentration of enzyme used to achieve robust assay window. The alpha, beta, and delta assays are run at 0.5, 1, and 0.3 nM enzymes and the gamma assay is run at 5 nM enzyme. The ATP concentration is 100 uM in the alpha, beta, and delta assays and 50 uM adenosine triphosphate (ATP) in the gamma assay. All reactions are run at 5 uM PIP2.
(§3) Compounds are serially diluted (3-fold in 100% DMSO) across a 384-well polypropylene source plated from column 3 to column 12 and column 13 to column 22, to yield 10 concentration dose response for each test compound. Columns 1, 2, 23 and 24 contain either only DMSO or pharmacological known control inhibitor. Once titrations are made, 2.5 nL of the compounds on 384 well plates are reformatted and transferred by acoustic dispense in quadruplicates to a 1536 assay plate (Greiner) to assay across all four PI3K isoform enzymes.
(§4) The PI3-Kinase biochemical assay was optimized using the HTRF kit provided by Upstate (Millipore). The assay kit contains six reagents: 1) 4×Reaction Buffer; 2) native PIP2 (substrate); 3) Stop (EDTA); 4) Detection Mix A (Streptavidin-APC); 5) Detection Mix B (Eu-labeled Anti-GST plus GST-tagged PH-domain): 6) Detection Mix C. In addition, the following items were obtained or purchased; PI3Kinase (catalog #'s alpha 14-602, beta 14-603, gamma 14-558 and delta 14-604 from Upstate Biotechnology now EMD Millipore, Mahopac, N.Y., USA), dithiothreitol (Sigma-Aldrich Corp. (St. Louis, Mo., USA) Catalog #D-5545), Adenosine-5′ triphosphate (InVitrogen (Waltham, Mass., USA), Cat#AS001 Å), native PIP3 (PI(3,4,5)P3, diC8, H^+, CELLSIGNALS, INC., (Columbus, Ohio, USA) Cat #907) DMSO ((Sigma-Aldrich Corp. (St. Louis. Mo., USA) Catalog #472301).
(§5) PI3Kinase Reaction Buffer is prepared by dilution the stock 1:4 with de-ionized water. DTT (DL-Dithiothreitol), phosphatidylinositol 4,5-bisphosphate (PIP2) and Biotin-PIP3 were added to 1536 assay plate at a final concentration of 5 mM, […] and 25 nM on the day of use. Enzyme addition and compound pre-incubation are initiated by the addition of 1.25 ul of PI3K (at twice its final concentration) in the 1× reaction buffer to all wells using a BioRaptor™. Plates are incubated at room temperature for 15 minutes. Reactions are initiated by addition of 1.25 ul of 2× substrate solution (PIP2 and ATP in 1× reaction buffer) using BioRaptor™. Plates are incubated in humidified chamber at room temperature for one hour. Reactions are quenched by addition of 0.625 uL of stop solution to all wells using the BioRaptor™. […]
(In general: Time-resolved FRET reads energy transfer from a long-lived donor to a nearby acceptor.)

For assay [2], the target named is PI3Kalpha (Homo sapiens (Human), UniProt P42336). Kind of assay: HTRF PI3K biochemical assay, alpha isoform (for selectivity ratio). Conditions: ratio PI3K-alpha IC50 value / PI3K-delta IC50 value.
Chain of PI3Kalpha (P42336 whole entry, canonical isoform): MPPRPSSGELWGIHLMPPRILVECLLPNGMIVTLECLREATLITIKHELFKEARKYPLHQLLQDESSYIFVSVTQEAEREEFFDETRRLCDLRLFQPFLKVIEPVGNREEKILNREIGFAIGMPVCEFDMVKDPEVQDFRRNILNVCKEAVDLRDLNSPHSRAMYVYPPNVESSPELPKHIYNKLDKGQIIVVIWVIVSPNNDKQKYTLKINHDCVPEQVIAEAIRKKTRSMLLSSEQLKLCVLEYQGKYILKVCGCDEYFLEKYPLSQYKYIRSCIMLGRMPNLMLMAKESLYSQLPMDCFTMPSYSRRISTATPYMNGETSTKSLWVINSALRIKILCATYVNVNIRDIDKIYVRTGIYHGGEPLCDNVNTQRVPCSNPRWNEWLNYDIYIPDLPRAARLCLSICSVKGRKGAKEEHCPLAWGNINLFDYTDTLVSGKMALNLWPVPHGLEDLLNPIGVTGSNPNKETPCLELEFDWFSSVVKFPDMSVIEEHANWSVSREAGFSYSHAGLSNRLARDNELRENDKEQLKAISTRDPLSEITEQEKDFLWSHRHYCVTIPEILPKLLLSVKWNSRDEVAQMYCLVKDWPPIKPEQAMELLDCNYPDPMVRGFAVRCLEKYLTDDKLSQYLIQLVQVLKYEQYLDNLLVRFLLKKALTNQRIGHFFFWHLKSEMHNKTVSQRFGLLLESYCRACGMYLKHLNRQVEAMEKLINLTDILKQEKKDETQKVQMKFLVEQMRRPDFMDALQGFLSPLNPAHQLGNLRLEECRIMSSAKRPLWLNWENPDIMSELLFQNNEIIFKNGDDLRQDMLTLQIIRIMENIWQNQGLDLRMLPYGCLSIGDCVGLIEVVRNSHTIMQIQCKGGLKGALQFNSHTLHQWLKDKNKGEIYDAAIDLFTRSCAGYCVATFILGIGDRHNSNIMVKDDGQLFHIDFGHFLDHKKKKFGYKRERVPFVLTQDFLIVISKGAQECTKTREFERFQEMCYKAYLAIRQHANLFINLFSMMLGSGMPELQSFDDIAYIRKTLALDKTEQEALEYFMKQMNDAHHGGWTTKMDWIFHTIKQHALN
Chain of PI3Kalpha (P27986 whole entry partner, canonical isoform): as the sequence (P27986 whole entry partner, canonical isoform) above
Source text: as §1, §2, §3, §4, §5

As to `C[C@@H]1CN(c2cnc(C#N)c(-c3cnn(C)c3)n2)CCN1C(=O)C1CC(F)(F)C1` [Compound 1-28, 5-{(3R)-4-[(3,3-difluorocyclobutyl)carbonyl]-3-methylpiperazin-1-yl}-3-(1-methyl-1H-pyrazol-4-yl)pyrazine-2-carbonitrile], the IC50 in assay [1] was 0.1 µM. Moreover, the “Selectivity versus PI3Kalpha” value in assay [2] is over 10.
`C[C@@H]1C[C@H]1C(=O)N1CCN(c2cnc(C#N)c(-c3cnn(C)c3)n2)C[C@H]1C` [Compound 1-14, 5-[(3R)-3-methyl-4-{[(1R,2R)-2-methylcyclopropyl]carbonyl}piperazin-1-yl]-3-(1-methyl-1H-pyrazol-4-yl)pyrazine-2-carbonitrile]: the IC50 in assay [1] is 0.0089 µM. Besides, the “Selectivity versus PI3Kalpha” value in assay [2] is over 10.
In the case of `C[C@@H]1CN(c2cnc(C#N)c(-c3cnn(C)c3)n2)CCN1C(=O)NCC1CC1` [Compound 1-34, (2R)-4-[5-cyano-6-(1-methyl-1H-pyrazol-4-yl)pyrazin-2-yl]-N-(cyclopropylmethyl)-2-methylpiperazine-1-carboxamide], the concentration for half-maximal inhibition (IC50) in assay [1] amounted to 0.21 µM. For the same compound, the “Selectivity versus PI3Kalpha” value in assay [2] is reported as over 10.
Consider `C[C@@H]1C[C@H]1C(=O)N1CCN(c2cnc(C#N)c(-c3cnn(C(F)F)c3)n2)C[C@H]1C` [Compound 1-17, 3-[1-(difluoromethyl)-1H-pyrazol-4-yl]-5-[(3R)-3-methyl-4-{[(1R,2R)-2-methylcyclopropyl]carbonyl}piperazin-1-yl]pyrazine-2-carbonitrile], for which the IC50 in assay [1] turned out to be 0.073 µM. Moreover, the “Selectivity versus PI3Kalpha” value in assay [2] is over 10.
`CCCN1C(=O)OCC12CCN(c1cnc(C#N)c(-c3cnn(C)c3)n1)CC2` [Compound 1-22, 3-(1-methyl-1H-pyrazol-4-yl)-5-(2-oxo-1-propyl-3-oxa-1,8-diazaspiro[4.5]dec-8-yl)pyrazine-2-carbonitrile]: the 50% inhibitory concentration (IC50) in assay [1] was 0.03 µM. The “Selectivity versus PI3Kalpha” value in assay [2] is over 10.
In the case of `CO[C@H]1CCN(C(=O)N2CCN(c3cnc(C#N)c(-c4cnn(C)c4)n3)C[C@H]2C)C1` [Compound 1-35, 5-[(3R)-4-{[(3S)-3-methoxypyrrolidin-1-yl]carbonyl}-3-methylpiperazin-1-yl]-3-(1-methyl-1H-pyrazol-4-yl)pyrazine-2-carbonitrile], the IC50 in assay [1] amounted to 0.11 µM. In addition, the “Selectivity versus PI3Kalpha” value in assay [2] is over 10.
For `CC(N1C(=O)N(CCN(C)C)CC12CCN(c1cnc(C#N)c(-c3cnn(C)c3)n1)CC2)C(F)(F)F` (centres unmarked) [Compound 1-5, 5-{3-[2-(dimethylamino)ethyl]-2-oxo-1-(2,2,2-trifluoro-1-methylethyl)-1,3,8-triazaspiro[4.5]dec-8-yl}-3-(1-methyl-1H-pyrazol-4-yl)pyrazine-2-carbonitrile], the concentration for half-maximal inhibition (IC50) in assay [1] amounted to 0.0072 µM. The “Selectivity versus PI3Kalpha” value in assay [2] is reported as over 10.
The corresponding values for `C[C@@H]1CN(c2nc(-c3cnn(C)c3)cnc2C#N)CCN1C(=O)C1CC1` [Compound 1-13, 3-[(3R)-4-(cyclopropylcarbonyl)-3-methylpiperazin-1-yl]-5-(1-methyl-1H-pyrazol-4-yl)pyrazine-2-carbonitrile] are 0.19 µM and over 10.
For `Cn1cc(-c2nc(N3CCC4(CC3)CNC(=O)N4CC3CC3)cnc2C#N)cn1` [Compound 1-3, 5-[1-(cyclopropylmethyl)-2-oxo-1,3,8-triazaspiro[4.5]dec-8-yl]-3-(1-methyl-1H-pyrazol-4-yl)pyrazine-2-carbonitrile], in assay [1], the 50% inhibitory concentration (IC50) was 0.0097 µM. The “Selectivity versus PI3Kalpha” value in assay [2] is over 10.
Turning to `COC1CN(C(=O)N2CCN(c3cnc(C#N)c(-c4cnn(C)c4)n3)C[C@H]2C)C1` [Compound 1-36, 5-{(3R)-4-[(3-methoxyazetidin-1-yl)carbonyl]-3-methylpiperazin-1-yl}-3-(1-methyl-1H-pyrazol-4-yl)pyrazine-2-carbonitrile], the IC50 in assay [1] was determined as 0.16 µM. Further, the “Selectivity versus PI3Kalpha” value in assay [2] was over 10.
As for `Cn1cc(-c2nc(N3CCC4(CCC(=O)N4CC4CC(F)(F)C4)CC3)cnc2C#N)cn1` [Compound 1-20, 5-{1-[(3,3-difluorocyclobutyl)methyl]-2-oxo-1,8-diazaspiro[4.5]dec-8-yl}-3-(1-methyl-1H-pyrazol-4-yl)pyrazine-2-carbonitrile], the IC50 in assay [1] was found to be 0.018 µM. Moreover, in assay [2], the “Selectivity versus PI3Kalpha” value was over 10.
For the compound `CO[C@H]1C[C@@H](C(=O)N2CCN(c3cnc(C#N)c(-c4cnn(C)c4)n3)C[C@H]2C)C1` [Compound 1-27, 5-{(3R)-4-[(cis-3-methoxycyclobutyl)carbonyl]-3-methylpiperazin-1-yl}-3-(1-methyl-1H-pyrazol-4-yl)pyrazine-2-carbonitrile], in assay [1], the IC50 stood at 0.1 µM. Moreover, the “Selectivity versus PI3Kalpha” value in assay [2] is listed as over 10.
The corresponding values for `[2H]C([2H])([2H])n1cc(-c2nc(N3CCN(C(=O)C4CC4)[C@H](C)C3)cnc2C#N)cn1` [Compound 1-18, 5-[(3R)-4-(cyclopropylcarbonyl)-3-methylpiperazin-1-yl]-3-[1-(~2~H_3_)methyl-1H-pyrazol-4-yl]pyrazine-2-carbonitrile] are 0.016 µM and over 10.
The corresponding values for `Cn1cc(-c2nc(N3CCC4(CC3)CNS(=O)(=O)N4CC3CC3)cnc2C#N)cn1` [Compound 1-6, 5-[1-(cyclopropylmethyl)-2,2-dioxido-2-thia-1,3,8-triazaspiro[4.5]dec-8-yl]-3-(1-methyl-1H-pyrazol-4-yl)pyrazine-2-carbonitrile] are 0.012 µM and over 10.
Regarding `Cn1cc(-c2nc(N3CCC4(CC3)COC(=O)N4CC3(C)COC3)cnc2C#N)cn1` [Compound 1-2, 5-{1-[(3-methyloxetan-3-yl)methyl]-2-oxo-3-oxa-1,8-diazaspiro[4.5]dec-8-yl}-3-(1-methyl-1H-pyrazol-4-yl)pyrazine-2-carbonitrile], in assay [1], the IC50 was 0.045 µM. Besides, the “Selectivity versus PI3Kalpha” value in assay [2] is over 10.
Take `CC(C)CC1OC(=O)NCC12CCN(c1cnc(C#N)c(-c3cnn(C)c3)n1)CC2` (single isomer, unassigned) [Compound 1-10, 5-[1-(2-methylpropyl)-3-oxo-2-oxa-4,9-diazaspiro[5.5]undec-9-yl]-3-(1-methyl-1H-pyrazol-4-yl)pyrazine-2-carbonitrile]: in assay [1], the half-maximal inhibitory concentration (IC50) worked out at 0.03 µM. Moreover, in assay [2], the “Selectivity versus PI3Kalpha” value is listed as over 10.
Take `CC(C)C[C@@H]1CN(c2cnc(C#N)c(-c3cnn(C)c3)n2)CCN1C(=O)C1CC1` [Compound 1-19, 5-[(3R)-4-(cyclopropylcarbonyl)-3-(2-methylpropyl)piperazin-1-yl]-3-(1-methyl-1H-pyrazol-4-yl)pyrazine-2-carbonitrile]: the IC50 in assay [1] worked out at 0.039 µM. Moreover, the “Selectivity versus PI3Kalpha” value in assay [2] is recorded as over 10.
On the same counts, the results for `C[C@@H]1CN(c2cnc(C#N)c(-c3cnn(C)c3)n2)CCN1C(=O)N1CCC1` [Compound 1-37, 5-[(3R)-4-(azetidin-1-ylcarbonyl)-3-methylpiperazin-1-yl]-3-(1-methyl-1H-pyrazol-4-yl)pyrazine-2-carbonitrile] are 0.053 µM and over 10.
On the same counts, the results for `C[C@@H]1CN(c2cnc(C#N)c(-c3cnn(C)c3)n2)CCN1C(=O)N1CCCC1` [Compound 1-32, 3-(1-methyl-1H-pyrazol-4-yl)-5-[(3R)-3-methyl-4-(pyrrolidin-1-ylcarbonyl)piperazin-1-yl]pyrazine-2-carbonitrile] are 0.18 µM and over 10.

As usually defined, the IC50 is the midpoint of a concentration-inhibition curve.
